The text below walks through data of ChEMBL document CHEMBL1135032, “Binding of aminoglycoside antibiotics with modified A-site 16S rRNA construct containing non-nucleotide linkers” (Bioorg Med Chem Lett, 2002).

Common to all, as to type: nucleic-acid assay
Assay [1] deals with Nucleic Acid. The experiment in a line: Tested for binding affinity against RNA construct A.
Assay [2] has as its target Nucleic Acid. The assay is described as follows: Tested for binding affinity against RNA construct B.
For assay [3], the target named is Nucleic Acid. The experiment in a line: Tested for binding affinity against RNA construct C; n.b. means no observable binding.
For assay [4], the target named is Nucleic Acid. The assay is described as follows: Tested for binding affinity against RNA construct D.
Assay [5] concerns the target Nucleic Acid. The experiment in a line: Tested for binding affinity against RNA construct E.
Assay [6] deals with Nucleic Acid. The assay is described as follows: Tested for binding affinity against RNA construct C.
The target in assay [7] is Nucleic Acid. The assay is described as follows: Tested for binding affinity against RNA construct A; n.b. means no observable binding.
The target of assay [8] is Nucleic Acid. The assay is described as follows: Tested for binding affinity against RNA construct B; n.b. means no observable binding.
For assay [9], the target named is Nucleic Acid. The assay is described as follows: Tested for binding affinity against RNA construct D; n.b. means no observable binding.
Assay [10] has as its target Nucleic Acid. The experiment in a line: Tested for binding affinity against RNA construct E; n.b. means no observable binding.

Usually Kd stands for the free concentration of one partner at which half of the binding sites on the other are occupied at equilibrium, for simple one-to-one binding. A high value points to weaker binding. Regarding `NC[C@H]1O[C@H](O[C@H]2[C@H](O)[C@@H](O[C@H]3O[C@H](CO)[C@@H](O)[C@H](N)[C@H]3O)[C@H](N)C[C@@H]2N)[C@H](N)[C@@H](O)[C@@H]1O` [BEKANAMYCIN], the Kd was 2.95 µM at Nucleic Acid [1]; 2.9 µM on Nucleic Acid [2]; “No binding” on Nucleic Acid [3]; 2.75 µM at Nucleic Acid [4]; 0.91 µM on Nucleic Acid [5].
In the case of `NC[C@@H]1O[C@H](O[C@H]2[C@@H](O)[C@H](O[C@@H]3[C@@H](O)[C@H](N)C[C@H](N)[C@H]3O[C@H]3O[C@H](CN)[C@@H](O)[C@H](O)[C@H]3N)O[C@@H]2CO)[C@H](N)[C@@H](O)[C@@H]1O` [FRAMYCETIN], the Kd at Nucleic Acid [1] was 0.41 µM; on Nucleic Acid [6] it was 4.34 µM; on Nucleic Acid [4], 0.47 µM; at Nucleic Acid [5] it was 0.091 µM.
Regarding `NC[C@@H]1O[C@H](O[C@H]2[C@@H](O)[C@H](O[C@@H]3[C@@H](O)[C@H](N)C[C@H](N)[C@H]3O[C@H]3O[C@H](CO)[C@@H](O)[C@H](O)[C@H]3N)O[C@@H]2CO)[C@H](N)[C@@H](O)[C@@H]1O` [PAROMOMYCIN], the Kd at Nucleic Acid [1] is 1.64 µM; at Nucleic Acid [2], 1.58 µM; on Nucleic Acid [6], 5.33 µM; on Nucleic Acid [4] it was 1.7 µM; on Nucleic Acid [5], 0.4 µM.
Regarding `CN[C@@H]1[C@H](O[C@H]2[C@H](O[C@H]3[C@H](O)[C@@H](O)[C@H](N=C(N)N)[C@@H](O)[C@@H]3N=C(N)N)O[C@@H](C)[C@]2(O)C=O)O[C@@H](CO)[C@H](O)[C@H]1O` [STREPTOMYCIN], the Kd entry at Nucleic Acid [7], on Nucleic Acid [8], at Nucleic Acid [3], on Nucleic Acid [9] and on Nucleic Acid [10] was “No binding” in each case.
On to `NC[C@H]1O[C@H](O[C@H]2[C@H](O)[C@@H](O[C@H]3O[C@H](CO)[C@@H](O)[C@H](N)[C@H]3O)[C@H](N)C[C@@H]2N)[C@H](N)C[C@@H]1O` [TOBRAMYCIN], for which the Kd was 2.07 µM on Nucleic Acid [1], 2.04 µM at Nucleic Acid [2], “No binding” on Nucleic Acid [3] and 0.68 µM on Nucleic Acid [5].
